Assay results taken from US5019584A, “Therapeutically active chloro substituted benzimidazole” (priority 1988, dated 1991).
Where two headings read alike, the source gives them in different places.

Assays:
[1] = tested on: gastric acid secretion (stimulated with pentagastrin and carbachol); assay: Inhibition of Gastric Acid Secretion in the Conscious Male Rat; assay type: in vivo, Sprague-Dawley; settings: 2 h, acid secretion during second hour after administration
Experimental: (§1) Since the bioavailability model described above is time and labour intensive, and requires a large number of plasma analyses, also a rough screening model, based on relative potencies to inhibit acid secretion, has been used (see for instance: A. Goth, Medical Pharmacology, 7th ed., C. V. Mosby Company, Saint Louis 1974, p 19). Thus, the ratio (called "Bioavailability" in Table 3) between the ED50 at intravenous administration and the ED50 at intraduodenal administration was calculated.
(§2) The potency for inhibition of acid secretion has been measured in the male rat and the dog, both intravenously and intraduodenally. When it comes to relevance of the animal test data for potency of a given compound in man for the present type of compounds, it is believed that potency in man will correspond to a level somewhere between what is measured in the male rat and what is measured in the dog.
(§3) Inhibition of Gastric Acid Secretion in the Conscious Male Rat.
(§4) Male rats of the Sprague-Dawley strain were used. They were equipped with cannulated fistulae in the stomach (lumen) and the upper part of the duodenum, for collection of gastric secretions and administration of test substances, respectively. A fourteen days recovery period after surgery was allowed before testing commenced.
(§5) Before secretory tests, the animals were deprived of food but not water for 20 h. The stomach was repeatedly washed through the gastric cannula, and 6 ml of Ringer-Glucose given s.c. Acid secretion was stimulated with a infusion during 3.5 h (1.2 ml/h, s.c.) of pentagastrin and carbachol (20 and 110 nmol/kg h, respectively), during which time gastric secretions were collected in 30-min fractions. Test substances or vehicle were given iv or id at 90 min after starting the stimulation, in a volume of 1 ml/kg. Gastric juice samples were titrated to pH 7.0 with NaOH, 0.1 mol/L, and acid output calculated as the product of titrant volume and concentration. Further calculations were based on group mean responses from 4-5 rats. The acid output during the periods after administration of test substances or vehicle were expressed as fractional responses, setting the acid output in the 30-min period preceding administration to 1.0. Percentage inhibition was calculated from the fractional responses elicited by test compound and vehicle. ED50 values were obtained from graphical interpolation on log dose-response curves, or estimated from single-dose experiments assuming a similar slope for all dose-response curves. An estimation of the bioavailability was obtained by calculating the ratio ED50 iv /ED50 id. The results reported are based on gastric acid secretion during the second hour after drug/vehicle administration.

[2] = as above; assay type: in vivo, Sprague-Dawley; settings: in vivo, ratio ED50 iv/ED50 id, read-out: "Bioavailability" measured by the Rough Screening Model, Rat ED50 iv/ED50 id (%)
Experimental: as §1, §2, §3, §4, §5

[3] = Chemical Stability in aqueous buffer solution at pH 7; assay type: physicochemical; settings: pH 7, 37° C., low concentration; for half-life: read-out: Chemical Stability at pH 7, half-life (t 1/2) (converted)
Experimental: The chemical stability of various compounds of the invention has been followed kinetically at low concentration at 37° C. in aqueous buffer solution at different pH values. The results in Table 3 show the half life (t 1/2) at pH 7, that is the time period after which half the amount of the original compound remains unchanged.

[4] = Bioavailability in the Male Rat (AUC method); assay type: in vivo, Sprague-Dawley; settings: blood, 4 umol/kg, AUC id vs iv, 4 μmol/kg, read-out: Bioavailability measured by the AUL-method, F %, Rat
Experimental: Bioavailability is assessed by calculating the quotient between the area under plasma concentration (AUC) curve following intraduodenal (id) administration and intravenous (iv) administration from the rat or the dog. Low, therapeutically relevant doses, were used. This method is scientifically recognized as valid for assessing bioavailability (see for instance: M. Rowland and T.N. Tozer, Clinical Pharmacokinetics, 2nd ed., Lea & Febiger, London 1989, p 42). Bioavailability in the Male Rat. Male adult rats of the Sprague-Dawley strain were used. One day, prior to the experiments, all rats were prepared by cannulation of the left carotid artery under anaesthesia. The rats used for the intravenous experiments, were also cannulated in the jugular vein. (Ref. V Popovic and P Popovic, J Appl Physiol 1960;15,727-728). The rats used for the intraduodenal experiments, were also cannulated in the upper part of the duodenum. The cannulas were exteriorized at the nape of the neck. […] The area under the blood concentration vs time curve, AUC, was determined by the linear trapezoidal rule and extrapolated to infinity by dividing the last determined blood concentration by the elimination rate constant in the terminal phase. The systemic bioavailability (F %) following intraduodenal administration was calculated as [formula]

[5] = tested on: gastric acid secretion (stimulated with histamine dihydrochloride); assay: Inhibition of Gastric Acid Secretion in the Conscious Dog; assay type: in vivo, Harrier dog, either sex; settings: for ED50: Canis lupus familiaris, dog, acid output 2 h after dosing
Experimental: as §2
Inhibition of Gastric Acid Secretion and Bioavailability in the Conscious Dog.
Harrier dogs of either sex were used. They were equipped with a duodenal fistula for the administration of test compounds or vehicle and a cannulated ventricular fistula for the collection of gastric secretions.
Before secretory tests the animals were fasted for about 18 h but water was freely allowed. Gastric acid secretion was stimulated by a 4 h infusion of histamine dihydrochloride (12 ml/h) at a dose producing about 80% of the individual maximal secretory response, and gastric juice collected in consecutive 30-min fractions. Test substance or vehicle was given id or iv 1 h after starting the histamine infusion, in a volume of 0.5 ml/kg body weight. The acidity of the gastric juice samples were determined by titration to pH 7.0, and the acid output calculated. The acid output in the collection periods after administration of test substance or vehicle were expressed as fractional responses, setting the acid output in the fraction preceding administration to 1.0. Percentage inhibition was calculated from fractional responses elicited by test compound and vehicle. ED50 --values were obtained by graphical interpolation on log dose-response curves, or estimated from single-dose experiments under the assumption of the same slope of the dose-response curve for all test compounds. All results reported are based on acid output 2 h after dosing.

[6] = route id (intraduodenal), read-out: Inhibition of acid secretion, Rat ED50, id
[7] = route iv, read-out: Inhibition of acid secretion, Rat ED50, iv
[8] = route id (intraduodenal), Ref. value: estimated from one dog (footnote 1), read-out: Inhibition of acid secretion, Dog ED50, id

SMILES	ED50 [1, 6] [µmol/kg]	ED50 [1, 7] [µmol/kg]	bioavailability [2] [%]	Chemical Stability at pH 7, half-life (t 1/2) [3] [h]	half-life [3] [min]	bioavailability [4] [%]	ED50 [5, 8] [µmol/kg]	ED50 ([5]; route iv, Example 1 value: only one dog (footnote 2), read-out: Inhibition of acid secretion, Dog ED50, iv) [µmol/kg]	effect on acid secretion at 1.0 μmol/kg ([5]; Dog 1, 1.0 μmol/kg, id)	inhibition of acid secretion at 2.0 μmol/kg ([5]; Dog 2, 2.0 μmol/kg, id) [%]
COc1ccnc(C[S+]([O-])c2nc3cc(Cl)ccc3[nH]2)c1OC (centres unmarked) [Example 1, 5-chloro-2-[[(3,4-dimethoxy-2-pyridinyl)methyl]sulfinyl]-1H-benzimidazole]	2.6	1.3	50	30	1800	97	1.2	1.75	–	–
COc1ccnc(C[S+]([O-])c2nc3cc(F)ccc3[nH]2)c1OC (centres unmarked) [Ref., 5-fluoro-2-[[(3,4-dimethoxy-2-pyridinyl)methyl]sulfinyl]-1H-benzimidazole]	1.75	0.85	49	58	3480	47	1.1	–	no effect	70
